Experimental data from publication PMC13324472, “A family of ribosome hibernation factors widespread in Archaea” (Nature Communications, 2026).

Target: T1, HibA-CM (isolated HibA N-terminal domain, CBS module) (Pyrococcus abyssi, UniProt Q9UYR4)
T1 construct: gene PAB0961; N-terminal CBS module (residues 1-269 given as the module), made by stop codon at position 272; N-terminal His6 tag, expressed in E. coli Rosetta, Talon and Superdex 200
Test: isothermal titration calorimetry
Format: binding

T1 sequence (Q9UYR4 entry or part of it): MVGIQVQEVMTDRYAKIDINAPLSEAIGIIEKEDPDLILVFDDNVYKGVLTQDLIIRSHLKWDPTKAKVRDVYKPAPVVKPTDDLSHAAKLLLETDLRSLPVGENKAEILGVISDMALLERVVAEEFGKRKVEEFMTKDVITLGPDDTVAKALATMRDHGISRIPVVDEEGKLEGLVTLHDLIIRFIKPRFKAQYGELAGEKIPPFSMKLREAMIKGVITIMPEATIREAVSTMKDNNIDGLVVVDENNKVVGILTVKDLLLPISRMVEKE

| Kd [µM] | Structure (SMILES) |
| --- | --- |
| 65 ± 1 | Nc1ncnc2c1ncn2[C@@H]1O[C@H](COP(=O)(O)OP(=O)(O)O)[C@@H](O)[C@H]1O [ADP] |
| 12 ± 2 | Nc1ncnc2c1ncn2[C@@H]1O[C@H](COP(=O)(O)O)[C@@H](O)[C@H]1O [AMP] |
| 113 ± 21 | Nc1ncnc2c1ncn2[C@@H]1O[C@H](COP(=O)(O)OP(=O)(O)OP(=O)(O)O)[C@@H](O)[C@H]1O [ATP] |
